Data from paper PMC4178217, “Quinoline 3-sulfonamides inhibit lactate dehydrogenase A and reverse aerobic glycolysis in cancer cells” (Cancer & Metabolism, 2013).
“And” between values parts separate entries of the source, which are not always exact repeats. Identical values can stand only once.

Tested on: Snu398 cells
Settings: Snu-398 conditioned medium, 10 μM, 24 h
Experimental: Ten million Snu398 or HepG2 cells per flask were plated in R10 medium in T150 tissue culture flasks and allowed to attach overnight. The following morning, medium was replaced with medium containing either DMSO or 10 μM LDHA inhibitor, and cells were incubated for 24 h at 37°C. The conditioned medium was collected and cells were washed, lifted by trypsinization and pelleted. Both medium and cell samples were submitted for mass spectroscopy (MS) analysis of over 500 individual metabolites. All samples were prepared in replicates of five.

## COc1ncc(-c2ccc3c(Nc4cc(C(=O)O)cc(C5CCCC5)c4)c(S(=O)(=O)NC4CC4)cnc3c2)c(OC)n1 [Compound 2]
  fold change 1-oleoylglycerophosphocholine: 1.05
  fold change 1-palmitoleoylglycerophosphocholine*: 0.90
  fold change 1-palmitoylglycerophosphocholine: 1.01
  fold change 1-stearoylglycerophosphocholine: 1.19
  fold change 2'-O-methylguanosine: 0.80
  fold change 2-aminobutyrate: 0.99
  fold change 2-hydroxybutyrate (AHB): 0.99
  fold change 2-hydroxyglutarate: 1.18
  fold change 2-methylbutyroylcarnitine: 1.01
  fold change 2-methylbutyrylglycine: 1.13
  fold change 2-oleoylglycerophosphocholine*: 0.98
  fold change 2-palmitoylglycerophosphocholine*: 1.26
  fold change 2-stearoylglycerophosphocholine*: 1.42
  fold change 3-(4-hydroxyphenyl)lactate: 0.97
  fold change 3-dehydrocarnitine*: 1.02
  fold change 3-indoxyl sulfate: 1.06
  fold change 3-methyl-2-oxobutyrate: 1.05
  fold change 3-methyl-2-oxovalerate: 1.03
  fold change 4-acetamidobutanoate: 0.90
  fold change 4-guanidinobutanoate: 0.77
  fold change 4-methyl-2-oxopentanoate: 1.21
  fold change 5-oxoproline: 1.19
  fold change 6'-sialyllactose: 1.11
  fold change C-glycosyltryptophan*: 0.98
  fold change HEPES: 0.97
  fold change Isobar: 2-propylpentanoic acid, 2-ethylhexanoic acid: 1.15
  fold change N1-methyladenosine: 1.01
  fold change N1-methylguanosine: 0.95
  fold change N6-carbamoylthreonyladenosine: 0.91
  fold change N-acetylaspartate (NAA): 0.99
  fold change N-acetylneuraminate: 0.79
  fold change N-acetylornithine: 1.11
  fold change X - 02952: 0.28
  fold change X - 02973: 1.02
  fold change X - 03090: 1.76
  fold change X - 04015: 1.25
  fold change X - 04133: 1.17
  fold change X - 04135: 1.33
  fold change X - 04148: 1.14
  fold change X - 04252: 0.37
  fold change X - 04357: 3.15
  fold change X - 05907: 1.01
  fold change X - 06126: 0.91
  fold change X - 06911: 0.81
  fold change X - 08172: 1.18
  fold change X - 08889: 1.38
  fold change X - 08895: 0.98
  fold change X - 09008: 1.34
  fold change X - 09026: 1.05
  fold change X - 10475: 1.45
  fold change X - 10476: 1.32
  fold change X - 10634: 0.42
  fold change X - 10740: 0.87
  fold change X - 10869: 0.69
  fold change X - 11081: 1.19
  fold change X - 11315: 1.04
  fold change X - 11533: 0.87
  fold change X - 11593: 0.89
  fold change X - 11787: 0.94
  fold change X - 12013: 0.89
  fold change X - 12015: 1.01
  fold change X - 12117: 1.10
  fold change X - 12216: 0.96
  fold change X - 12339: 1.00
  fold change X - 12435: 0.96
  fold change X - 12602: 0.99
  fold change X - 12729: 1.00
  fold change X - 12749: 0.94
  fold change X - 12776: 1.11
  fold change X - 12786: 2.02
  fold change X - 12792: 1.10
  fold change X - 12799: 0.97
  fold change X - 12944: 1.00
  fold change X - 13100: 0.98
  fold change X - 13103: 0.98
  fold change X - 13104: 1.21
  fold change X - 13110: 1.01
  fold change X - 13115: 0.80
  fold change X - 13117: 0.96
  fold change X - 13166: 0.94
  fold change X - 13483: 0.87
  fold change X - 13491: 1.35
  fold change X - 13494: 1.24
  fold change X - 13496: 1.00
  fold change X - 13507: 1.11
  fold change X - 13553: 1.09
  fold change X - 13581: 2.54
  fold change X - 13857: 0.86
  fold change X - 14056: 1.73
  fold change X - 14574: 1.45
  fold change X - 14588: 0.84
  fold change X - 15558: 1.10
  fold change X - 15559: 1.21
  fold change X - 15562: 1.10
  fold change X - 15563: 1.18
  fold change X - 15678: 1.19
  fold change X - 15808: 1.12
  fold change X - 16103: 0.95
  fold change X - 16116: 0.82
  fold change X - 16200: 1.20
  fold change X - 16206: 1.03
  fold change X - 16439: 1.19
  fold change X - 16444: 1.03
  fold change X - 17112: 0.96
  fold change X - 17430: 1.10
  fold change acetylcarnitine: 0.97
  fold change acetylphosphate: 1.00
  fold change alanine: 1.20
  fold change alanylglutamine: 0.94
  fold change allantoin: 1.08
  fold change arabitol: 1.09
  fold change arachidonate (20:4n6): 1.01
  fold change arginine: 0.98
  fold change asparagine: 0.74
  fold change aspartate: 1.09
  fold change aspartylleucine: 0.96
  fold change beta-alanine: 0.86
  fold change beta-hydroxyisovalerate: 0.93
  fold change beta-hydroxypyruvate: 1.05
  fold change betaine: 1.00
  fold change biotin: 0.97
  fold change butyrylcarnitine: 0.76
  fold change caproate (6:0): 1.01
  fold change caprylate (8:0): 1.04
  fold change carnitine: 0.93
  fold change catechol sulfate: 1.01
  fold change choline: 0.97
  fold change citrate: 1.02
  fold change citrulline: 0.95
  fold change creatine: 1.01
  fold change creatinine: 1.07
  fold change cyclo(leu-ala): 0.93
  fold change cysteine: 1.01
  fold change cysteine sulfinic acid: 0.95
  fold change cysteine-glutathione disulfide: 1.41
  fold change deoxycarnitine: 0.95
  fold change dimethyl sulfoxide*: 1.03
  fold change dimethylarginine (SDMA + ADMA): 1.30
  fold change docosahexaenoate (DHA; 22:6n3): 1.03
  fold change docosapentaenoate (n3 DPA; 22:5n3): 0.89
  fold change erythritol: 1.01
  fold change erythronate*: 0.96
  fold change ethanolamine: 1.09
  fold change folate: 1.00
  fold change fructose: 1.01
  fold change fumarate: 0.99
  fold change gamma-glutamylisoleucine*: 0.74
  fold change gamma-glutamylleucine: 0.89
  fold change gamma-glutamylphenylalanine: 1.18
  fold change gamma-glutamylvaline: 0.85
  fold change glucose: 1.07
  fold change glutamate: 1.05
  fold change glutamine: 1.15
  fold change glycerate: 1.15
  fold change glycerol: 1.10
  fold change glycerol 3-phosphate (G3P): 0.95
  fold change glycerophosphorylcholine (GPC): 0.86
  fold change glycine: 1.06
  fold change glycochenodeoxycholate: 0.90
  fold change glycocholate: 1.02
  fold change glycylglycine: 0.90
  fold change glycylleucine: 0.84
  fold change glycyltyrosine: 0.99
  fold change glycylvaline: 0.96
  fold change heme*: 0.94
  fold change hexadecanedioate: 1.07
  fold change hippurate: 0.98
  fold change histidine: 1.01
  fold change homostachydrine*: 1.01
  fold change hydroquinone: 0.85
  fold change indolelactate: 1.02
  fold change isobutyrylcarnitine: 1.03
  fold change isoleucine: 0.96
  fold change isovalerate: 0.68
  fold change isovalerylcarnitine: 1.02
  fold change kynurenate: 1.10
  fold change kynurenine: 1.07
  fold change lactate: 0.94
  fold change leucine: 0.95
  fold change lysine: 0.51
  fold change lysylleucine: 0.85
  fold change malate: 0.95
  fold change mannitol: 0.82
  fold change methionine: 0.94
  fold change myo-inositol: 0.98
  fold change nicotinamide: 0.87
  fold change ornithine: 0.80
  fold change p-aminobenzoate (PABA): 0.98
  fold change p-cresol sulfate: 0.96
  fold change palmitoyl sphingomyelin: 0.96
  fold change pantothenate: 0.98
  fold change phenol red: 0.99
  fold change phenol sulfate: 1.00
  fold change phenylacetylglycine: 0.95
  fold change phenylalanine: 0.89
  fold change phosphate: 1.01
  fold change pipecolate: 1.02
  fold change pro-hydroxy-pro: 1.06
  fold change proline: 1.13
  fold change propionylcarnitine: 0.95
  fold change pseudouridine: 1.02
  fold change putrescine: 0.82
  fold change pyridoxate: 0.95
  fold change pyridoxine (Vitamin B6): 1.02
  fold change pyruvate: 3 and 2.66
  fold change ribitol: 1.06
  fold change riboflavin (Vitamin B2): 1.02
  fold change scyllo-inositol: 0.89
  fold change serine: 0.84
  fold change serotonin (5HT): 1.03
  fold change sorbitol: 0.98
  fold change succinate: 0.98
  fold change taurocholate: 0.89
  fold change taurodeoxycholate: 0.96
  fold change tetradecanedioate: 0.80
  fold change thiamin (Vitamin B1): 1.12
  fold change threitol: 0.96
  fold change threonine: 0.96
  fold change trans-4-hydroxyproline: 1.06
  fold change tryptophan: 0.90
  fold change tyrosine: 0.91
  fold change uracil: 0.99
  fold change urea: 1.10
  fold change uridine: 1.20
  fold change valerylcarnitine: 0.97
  fold change valine: 0.95
  fold change xylitol: 1.13
